This note sets out measurements from patent publication US11986532B2 (Arvinas Operations, Inc., priority 2021, dated 2024).

Where only a bound is given, the exact number is not on record here.

This experiment has as its target T1, BCL6 (Homo sapiens, UniProt P41182).
T1 construct: endogenous in cells; host or cells: T47D breast cancer epithelial cells
Put plainly: Immunofluorescence protocol for high content imaging of BCL6 (degradation) in T47D cells, 3 days compound treatment. It counts as cell-based. The note with it: for Dmax: T47D, read-out: Mean Dmax (%)** category; for DC50: read-out: Mean DC50 (nM)* category. Summed up:
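T47D, RPMI1640/10% FBS; cpd 11-pt 3-fold, top 0.1 or 1 μM final; 3 d, 37° C. Fix 4% PFA, perm 0.1% Triton, block 3% BSA; anti-BCL6 1:300 o/n 4° C; Alexa-488 2°, CellMask-647, Hoechst. Imaged 10×, 4 fields/well.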

The Dmax is the largest share of the target that was removed. For orientation: DC50 means the midpoint of the concentration-degradation curve. `CNC(=O)COc1cc2cc(Nc3nc(N4CCC(O[C@H]5C[C@H](N6CCC(c7c(OC)cc8c(c7F)CN(C7CCC(=O)NC7=O)C8=O)CC6)C5)CC4)ncc3Cl)ccc2n(C(C)C)c1=O` (stereo partly shown) [Compound 409, 2-({6-[(5-chloro-2-{4-[(1r,3r)-3-{4-[2-(2,6-dioxopiperidin-3-yl)-4-fluoro-6-methoxy-1-oxo-2,3-dihydro-1H-isoindol-5-yl]piperidin-1-yl}cyclobutoxy]piperidin-1-yl}pyrimidin-4-yl)amino]-2-oxo-1-(propan-2-yl)-1,2-dihydroquinolin-3-yl}oxy)-N-methylacetamide]: the Dmax was no less than 70% and the DC50 is less than 10 nM.
The like results for `CNC(=O)COc1cc2cc(Nc3nc(N4CCC(O[C@H]5C[C@H](N6CCC7(CC6)CN(c6ccc8c(c6F)CN(C6CCC(=O)NC6=O)C8=O)C7)C5)CC4)ncc3Cl)ccc2n(C(C)C)c1=O` (stereo partly shown) [Compound 410, 2-({6-[(5-chloro-2-{4-[(1r,3r)-3-{2-[2-(2,6-dioxopiperidin-3-yl)-4-fluoro-1-oxo-2,3-dihydro-1H-isoindol-5-yl]-2,7-diazaspiro[3.5]nonan-7-yl}cyclobutoxy]piperidin-1-yl}pyrimidin-4-yl)amino]-2-oxo-1-(propan-2-yl)-1,2-dihydroquinolin-3-yl}oxy)-N-methylacetamide] were, in that order, no less than 70% and less than 10 nM.
The corresponding values for `CNC(=O)COc1cc2cc(Nc3nc(N4CCC(O[C@H]5C[C@H](N6CCC(c7ccc8c(c7F)CN(C7CCC(=O)NC7=O)C8=O)CC6)C5)CC4)ncc3Cl)ccc2n(C2CCCCC2)c1=O` (stereo partly shown) [Compound 411, 2-({6-[(5-chloro-2-{4-[(1r,3r)-3-{4-[2-(2,6-dioxopiperidin-3-yl)-4-fluoro-1-oxo-2,3-dihydro-1H-isoindol-5-yl]piperidin-1-yl}cyclobutoxy]piperidin-1-yl}pyrimidin-4-yl)amino]-1-cyclohexyl-2-oxo-1,2-dihydroquinolin-3-yl}oxy)-N-methylacetamide] are no less than 70% and less than 10 nM.
The corresponding values for `CNC(=O)COc1cc2cc(Nc3nc(N4CCC(O[C@H]5C[C@H](N6CCN(c7ccc8c(c7Cl)C(=O)N(C7CCC(=O)NC7=O)C8=O)CC6)C5)CC4)ncc3Cl)ccc2n(C(C)C)c1=O` (stereo partly shown) [Compound 412, 2-({6-[(5-chloro-2-{4-[(1r,3r)-3-{4-[4-chloro-2-(2,6-dioxopiperidin-3-yl)-1,3-dioxo-2,3-dihydro-1H-isoindol-5-yl]piperazin-1-yl}cyclobutoxy]piperidin-1-yl}pyrimidin-4-yl)amino]-2-oxo-1-(propan-2-yl)-1,2-dihydroquinolin-3-yl}oxy)-N-methylacetamide] are 50 to 70% and 10 to 50 nM.
As to `CNC(=O)COc1cc2cc(Nc3nc(N4CCC(O[C@H]5C[C@H](N6CCN(c7ccc8c(c7F)C(=O)N(C7CCC(=O)NC7=O)C8=O)CC6)C5)CC4)ncc3Cl)ccc2n(C(C)C)c1=O` (stereo partly shown) [Compound 413, 2-({6-[(5-chloro-2-{4-[(1r,3r)-3-{4-[2-(2,6-dioxopiperidin-3-yl)-4-fluoro-1,3-dioxo-2,3-dihydro-1H-isoindol-5-yl]piperazin-1-yl}cyclobutoxy]piperidin-1-yl}pyrimidin-4-yl)amino]-2-oxo-1-(propan-2-yl)-1,2-dihydroquinolin-3-yl}oxy)-N-methylacetamide], the Dmax is less than 50% and the DC50 is 10 to 50 nM.
The corresponding values for `CNC(=O)COc1cc2cc(Nc3nc(N4CCC(O[C@H]5C[C@H](N6CCC7(CC6)CN(c6ccc8c(c6C)C(=O)N(C6CCC(=O)NC6=O)C8=O)C7)C5)CC4)ncc3Cl)ccc2n(C(C)C)c1=O` (stereo partly shown) [Compound 414, 2-({6-[(5-chloro-2-{4-[(1r,3r)-3-{2-[2-(2,6-dioxopiperidin-3-yl)-4-methyl-1,3-dioxo-2,3-dihydro-1H-isoindol-5-yl]-2,7-diazaspiro[3.5]nonan-7-yl}cyclobutoxy]piperidin-1-yl}pyrimidin-4-yl)amino]-2-oxo-1-(propan-2-yl)-1,2-dihydroquinolin-3-yl}oxy)-N-methylacetamide] are no less than 70% and less than 10 nM.
As for `CNC(=O)COc1cc2cc(Nc3nc(N4CCC(O[C@H]5C[C@H](N6CCN(c7ccc8c(n7)CN(C7CCC(=O)NC7=O)C8=O)[C@H](C)C6)C5)CC4)ncc3Cl)ccc2n(C(C)C)c1=O` (stereo partly drawn) [Compound 415, 2-({6-[(5-chloro-2-{4-[(1r,3r)-3-[(3R)-4-[6-(2,6-dioxopiperidin-3-yl)-5-oxo-5H,6H,7H-pyrrolo [3,4-b]pyridin-2-yl]-3-methylpiperazin-1-yl]cyclobutoxy]piperidin-1-yl}pyrimidin-4-yl)amino]-2-oxo-1-(propan-2-yl)-1,2-dihydroquinolin-3-yl}oxy)-N-methylacetamide], the “Mean Dmax (%)** category” value was “A (A >= 70)” and the DC50 was less than 10 nM.
For the molecule `CNC(=O)COc1cc2cc(Nc3nc(N4CCC(O[C@H]5C[C@H](N6CCN(c7ccc8c(c7C)CN(C7CCC(=O)NC7=O)C8=O)CC6)C5)CC4)ncc3Cl)ccc2n(C(C)C)c1=O` (stereo partly shown) [Compound 416, 2-({6-[(5-chloro-2-{4-[(1r,3r)-3-{4-[2-(2,6-dioxopiperidin-3-yl)-4-methyl-1-oxo-2,3-dihydro-1H-isoindol-5-yl]piperazin-1-yl}cyclobutoxy]piperidin-1-yl}pyrimidin-4-yl)amino]-2-oxo-1-(propan-2-yl)-1,2-dihydroquinolin-3-yl}oxy)-N-methylacetamide], the Dmax was no less than 70% and the DC50 is less than 10 nM.
As for `CNC(=O)COc1cc2cc(Nc3nc(N4CCC(O[C@H]5C[C@H](N6CCCN(c7ccc8c(c7C)C(=O)N(C7CCC(=O)NC7=O)C8=O)CC6)C5)CC4)ncc3Cl)ccc2n(C(C)C)c1=O` (stereo partly shown) [Compound 417, 2-({6-[(5-chloro-2-{4-[(1r,3r)-3-{4-[2-(2,6-dioxopiperidin-3-yl)-4-methyl-1,3-dioxo-2,3-dihydro-1H-isoindol-5-yl]-1,4-diazepan-1-yl}cyclobutoxy]piperidin-1-yl}pyrimidin-4-yl)amino]-2-oxo-1-(propan-2-yl)-1,2-dihydroquinolin-3-yl}oxy)-N-methylacetamide], the Dmax was no less than 70% and the DC50 is less than 10 nM.
The like results for `CNC(=O)COc1cc2cc(Nc3nc(N4CCC(O[C@H]5C[C@H](N6CC7(CCN(c8ccc9c(c8C)C(=O)N(C8CCC(=O)NC8=O)C9=O)CC7)C6)C5)CC4)ncc3Cl)ccc2n(C(C)C)c1=O` (stereo partly shown) [Compound 418, 2-({6-[(5-chloro-2-{4-[(1r,3r)-3-{7-[2-(2,6-dioxopiperidin-3-yl)-4-methyl-1,3-dioxo-2,3-dihydro-1H-isoindol-5-yl]-2,7-diazaspiro[3.5]nonan-2-yl}cyclobutoxy]piperidin-1-yl}pyrimidin-4-yl)amino]-2-oxo-1-(propan-2-yl)-1,2-dihydroquinolin-3-yl}oxy)-N-methylacetamide] were, in that order, no less than 70% and less than 10 nM.
The corresponding values for `CNC(=O)COc1cc2c(F)c(Nc3nc(N4CCC(O[C@H]5C[C@H](N6CCC(c7ccc8c(c7C)C(=O)N(C7CCC(=O)NC7=O)C8=O)CC6)C5)CC4)ncc3Cl)ccc2n(C(C)C)c1=O` (stereo partly shown) [Compound 419, 2-({6-[(5-chloro-2-{4-[(1r,3r)-3-{4-[2-(2,6-dioxopiperidin-3-yl)-4-methyl-1,3-dioxo-2,3-dihydro-1H-isoindol-5-yl]piperidin-1-yl}cyclobutoxy]piperidin-1-yl}pyrimidin-4-yl)amino]-5-fluoro-2-oxo-1-(propan-2-yl)-1,2-dihydroquinolin-3-yl}oxy)-N-methylacetamide] are no less than 70% and less than 10 nM.
